We go through three molecules from patent publication US20130018033A1, “RAF INHIBITOR COMPOUNDS AND METHODS OF USE THEREOF” (ARRAY BIOPHARMA INC., priority 2009, published 2013).

SMILES strings stand for the structures. Where two headings read alike, the source gives them in different places.

For assay [1], the system named is subcutaneous LOX xenografts. Briefly: Tumor growth inhibition (LOX), Example A2. It counts as in vivo. The conditions noted are these: female nude mice, LOX xenograft; for Tumor Volume (mm^3) Day 1: 10 mg/kg PO on days 1-4, Day 1; for Tumor Volume (mm^3) Day 3: 10 mg/kg PO on days 1-4, Day 3; for Tumor Volume (mm^3) Day 5: 10 mg/kg PO on days 1-4, Day 5. Here is the method: (§1) Female nude mice were implanted subcutaneously on the right flank with approximately 3.5×10^6 LOX cells in 100 μL PBS. Five to seven days later, tumors were measured and mice were randomized into groups of six with average tumor volume in each group of approximately 200 mm^3. Examples 3 and 28 were dissolved in 80% PEG400/20% ethanol before dosing, and administered PO at a volume of 5 mL/kg. Dosing was vehicle alone on days 1, 2, 3 and 4; and Examples 3 and 28 at 10 mg/kg on days 1, 2, 3 and 4. Animal weights and tumor volumes were measured using electronic calipers on day 5. Tumor volume was calculated using the formula: volume=(width2×length)/2.

Assay [2] deals with basal ERK1/2 phosphorylation in Malme-3M cells. As to the kind of experiment: Cellular ERK 1/2 phosphorylation assay (Example A1). It is filed as cell-based. Particulars: Homo sapiens, 1 hour incubation, pERK normalized to total ERK, read-out: P-ERK Malme3-M IC50. A digest of the protocol:
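Malme-3M cells (24,000/well, RPMI-1640 with 10% FBS) were treated with compounds for 1 h at 37 °C, 1% DMSO final. Fixed, methanol-permeabilized cells were immunostained for pERK and total ERK and read by infrared fluorescence. pERK signal was normalized to total ERK.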

The target in a further assay is T1, V600E full-length B-Raf (Homo sapiens, UniProt P15056, V600E).
T1 construct: 1 μM FSBA-MEK and 20 nM V600E full-length B-Raf; made in house; host or cells: Sf9 insect cells (baculovirus)
T1 sequence (P15056 whole entry V600E): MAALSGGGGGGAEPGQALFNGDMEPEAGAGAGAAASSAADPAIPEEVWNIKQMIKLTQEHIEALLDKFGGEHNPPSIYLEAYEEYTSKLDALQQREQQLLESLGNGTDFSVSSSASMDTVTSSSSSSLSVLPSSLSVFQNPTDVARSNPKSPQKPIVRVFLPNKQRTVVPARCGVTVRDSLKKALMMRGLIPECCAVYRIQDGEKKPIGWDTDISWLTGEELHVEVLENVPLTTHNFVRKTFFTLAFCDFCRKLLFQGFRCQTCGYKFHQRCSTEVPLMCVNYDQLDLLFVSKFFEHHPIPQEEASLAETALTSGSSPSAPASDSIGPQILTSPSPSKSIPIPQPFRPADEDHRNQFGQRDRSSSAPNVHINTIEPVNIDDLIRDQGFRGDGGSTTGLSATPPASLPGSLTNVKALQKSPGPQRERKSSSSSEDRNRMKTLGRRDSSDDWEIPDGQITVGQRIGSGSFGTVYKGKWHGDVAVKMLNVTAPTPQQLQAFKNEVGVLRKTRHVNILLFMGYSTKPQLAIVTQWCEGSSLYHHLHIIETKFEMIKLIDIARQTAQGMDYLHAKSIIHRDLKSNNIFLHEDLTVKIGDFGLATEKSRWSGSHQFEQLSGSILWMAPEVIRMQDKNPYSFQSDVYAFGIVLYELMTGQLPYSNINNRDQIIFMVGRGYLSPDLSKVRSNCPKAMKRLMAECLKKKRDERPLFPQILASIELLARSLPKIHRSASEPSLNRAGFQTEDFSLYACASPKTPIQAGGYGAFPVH
As to the kind of experiment: B-Raf IC50 assay (Example A). It counts as biochemical. A digest of the protocol:
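Sf9-expressed full-length V600E B-Raf (20 nM) phosphorylated 1 µM FSBA-modified wild-type MEK with 4 µM ATP plus [γ-33P]ATP in 25 mM Pipes pH 7.2, 100 mM KCl, 10 mM MgCl2. Enzyme and substrate were preincubated 15 min, and the reaction ran 60 min at 22 °C. It was TCA-quenched and filter-captured, and incorporated radioactivity was scintillation-counted.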

For assay [3], the system named is subcutaneous LOX xenografts. Briefly: Tumor growth inhibition (LOX), Example A3. The conditions noted are these: female nude mice, LOX xenograft. It is filed as in vivo. Here is the method:
as §1, with “mm^3. Example 23 was” for “mm^3. Examples 3 and 28 were”, “and Example 23” for “and Examples 3 and 28”, “at 5” for “at 10”, “formula: volume=(width^2×length)/2.” for “formula: volume=(width2×length)/2.”

The mark [4] stands for this setting: B-Raf V600E assay of Example A, read-out: IC50.
[5] abbreviates: [γ-33P]ATP incorporation into FSBA-MEK, 4 μM ATP, read-out: BRAF V600E IC50.

As a reminder, the IC50 is the concentration that inhibits the measured activity by half. Consider `CCCS(=O)(=O)Nc1ccc(F)c(NC(=O)c2cccc3c(N)ncnc23)c1C#N` [Example 28, 4-Amino-quinazoline-8-carboxylic acid [2-cyano-6-fluoro-3-(propane-1-sulfonylamino)-phenyl]-amide], for which, in assay [1], the “Tumor Volume (mm^3) Day 1” value was determined as 190.71 mm^3, the “Tumor Volume (mm^3) Day 3” value was found to be 176.38 mm^3 and the “Tumor Volume (mm^3) Day 5” value is 219.31 mm^3. In addition, the IC50 in assay [2] was 14.4 nM. Moreover, the IC50 at V600E full-length B-Raf (setting [4]) was less than 0.1 µM. Moreover, the IC50 on V600E full-length B-Raf (setting [5]) stood at 0.00011 µM.

Take `CCCS(=O)(=O)Nc1ccc(F)c(NC(=O)c2cccc3c(N)ncnc23)c1Cl` [Example 3, 4-Amino-quinazoline-8-carboxylic acid [2-chloro-6-fluoro-3-(propane-1-sulfonylamino)-phenyl]-amide]: in assay [1], the “Tumor Volume (mm^3) Day 1” value amounted to 190.33 mm^3, the “Tumor Volume (mm^3) Day 3” value is given as 151.33 mm^3 and the “Tumor Volume (mm^3) Day 5” value turned out to be 118.41 mm^3. For the same molecule, in assay [2], the IC50 was 7.23 nM. In addition, the IC50 on V600E full-length B-Raf (setting [4]) was less than 0.1 µM. Also, on V600E full-length B-Raf (BRAF V600E IC50 (μM), [γ-33P]ATP incorporation into FSBA-MEK, 4 μM ATP), the half-maximal inhibitory concentration (IC50) was 0.00053 µM.

`Nc1ncnc2c(C(=O)Nc3c(F)ccc(NS(=O)(=O)CCCF)c3F)cccc12` [Example 23, 4-Amino-quinazoline-8-carboxylic acid [2,6-difluoro-3-(3-fluoro-propane-1-sulfonylamino)-phenyl]-amide]: the half-inhibitory concentration (IC50) is 3.89 nM in assay [2], less than 0.1 µM on V600E full-length B-Raf (setting [4]) and 0.00028 µM at V600E full-length B-Raf (setting [5]). In addition, the “Tumor Volume (mm^3) Day 1” value in assay [3] (5 mg/kg PO on days 1-4, Day 1) is listed as 221.32 mm^3. Further, the “Tumor Volume (mm^3) Day 3” value in assay [3] (5 mg/kg PO on days 1-4, Day 3) is listed as 280.81 mm^3. In assay [3] (5 mg/kg PO on days 1-4, Day 5), the “Tumor Volume (mm^3) Day 5” value amounted to 157.52 mm^3.
